What was measured:
[1] = molecular target: T1, 5-hydroxytryptamine receptor 3A (Homo sapiens, UniProt P46098); assay: Displacement of [3H]granisetron from human recombinant 5-HT3 receptor expressed in HEK293 cells; type: cell-based
T1 sequence (P46098 whole entry): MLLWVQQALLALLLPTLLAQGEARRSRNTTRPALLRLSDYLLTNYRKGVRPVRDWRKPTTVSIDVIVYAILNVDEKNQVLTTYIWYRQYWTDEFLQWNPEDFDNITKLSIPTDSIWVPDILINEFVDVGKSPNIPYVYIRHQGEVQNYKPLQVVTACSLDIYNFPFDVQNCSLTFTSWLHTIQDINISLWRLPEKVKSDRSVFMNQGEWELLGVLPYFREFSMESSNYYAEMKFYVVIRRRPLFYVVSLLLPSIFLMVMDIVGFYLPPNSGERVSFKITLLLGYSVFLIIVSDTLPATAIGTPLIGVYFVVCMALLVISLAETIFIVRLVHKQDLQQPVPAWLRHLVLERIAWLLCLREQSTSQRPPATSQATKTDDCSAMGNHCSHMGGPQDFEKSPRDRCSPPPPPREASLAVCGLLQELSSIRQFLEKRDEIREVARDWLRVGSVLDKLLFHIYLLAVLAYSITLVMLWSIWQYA

[2] = molecular target: T2, 5-hydroxytryptamine receptor 4 (Homo sapiens, UniProt Q13639); assay: Displacement of [3H]GR-113808 from human recombinant 5-HT4 receptor
Mu-type opioid receptor = Mu-type opioid receptor (Homo sapiens, UniProt P35372); assay: Binding affinity to human mu opioid receptor
[3] = molecular target: T2, 5-hydroxytryptamine receptor 4; assay: Agonist activity at human recombinant 5-HT4 receptor; type: functional
[4] = molecular target: T1, 5-hydroxytryptamine receptor 3A; assay: Antagonist activity at human recombinant 5-HT3 receptor expressed in HEK293 cells; type: functional, cell-based

Sequence of Mu-type opioid receptor (P35372 whole entry): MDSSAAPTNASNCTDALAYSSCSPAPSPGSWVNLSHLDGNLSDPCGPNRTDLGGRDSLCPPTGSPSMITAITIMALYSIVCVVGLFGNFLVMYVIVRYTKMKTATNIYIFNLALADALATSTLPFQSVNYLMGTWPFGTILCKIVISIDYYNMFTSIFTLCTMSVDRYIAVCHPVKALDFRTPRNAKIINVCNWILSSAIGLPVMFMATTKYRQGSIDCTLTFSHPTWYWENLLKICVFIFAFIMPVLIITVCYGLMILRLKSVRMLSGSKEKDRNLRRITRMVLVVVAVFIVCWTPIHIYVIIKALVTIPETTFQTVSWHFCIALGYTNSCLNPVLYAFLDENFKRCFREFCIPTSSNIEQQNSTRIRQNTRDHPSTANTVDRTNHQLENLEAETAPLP
T2 sequence (Q13639 whole entry): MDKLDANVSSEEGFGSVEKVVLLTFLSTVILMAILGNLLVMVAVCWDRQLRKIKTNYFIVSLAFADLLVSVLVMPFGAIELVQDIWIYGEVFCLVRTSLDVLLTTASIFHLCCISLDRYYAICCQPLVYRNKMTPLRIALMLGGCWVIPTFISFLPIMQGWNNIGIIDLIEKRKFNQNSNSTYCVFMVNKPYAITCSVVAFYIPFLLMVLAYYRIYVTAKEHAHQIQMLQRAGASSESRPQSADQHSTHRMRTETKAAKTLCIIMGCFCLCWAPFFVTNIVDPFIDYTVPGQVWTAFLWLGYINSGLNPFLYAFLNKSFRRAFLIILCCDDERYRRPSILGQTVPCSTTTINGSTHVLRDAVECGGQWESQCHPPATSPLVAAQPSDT

| SMILES | IC50 [1] [µM] | IC50 [2] [µM] | IC50 (Mu-type opioid receptor) [µM] | EC50 [3] [µM] | EC50 [4] [µM] |
| --- | --- | --- | --- | --- | --- |
| COc1cc(N)c(Cl)cc1C(=O)NCCN(C)C[C@H]1CCCC[C@]1(O)c1cccc(O)c1 | 3.1 | > 10 | 0.34 |  |  |
| COc1cccc([C@@]2(O)CCCC[C@@H]2CN2CC[C@H](NC(=O)c3cc(Cl)c(N)cc3OC)[C@H](OC)C2)c1 | 0.79 | 6.1 | > 10 |  |  |
| COc1cccc([C@]2(O)CCCC[C@H]2CN2CC[C@H](NC(=O)c3cc(Cl)c(N)cc3OC)[C@H](OC)C2)c1 | 1.7 | 4.6 | > 10 |  |  |
| COc1cc(N)c(Cl)cc1C(=O)N[C@@H]1CCN(C[C@H]2CCCC[C@]2(O)c2cccc(O)c2)C[C@@H]1OC | 1.6 | > 10 | > 10 |  |  |
| COc1cccc([C@]2(O)CCCC[C@H]2CN2CC[C@@H](NC(=O)c3cc(Cl)c(N)cc3OC)[C@@H](OC)C2)c1 | 0.159 | 3.9 | > 10 | 0.12 | > 10 |
| COc1cccc([C@@]2(O)CCCC[C@@H]2CN(C)CCNC(=O)c2cc(Cl)c(N)cc2OC)c1 | 3.5 | 5 | 4.5 |  |  |
| COc1cc(N)c(Cl)cc1C(=O)NCCN(C)C[C@@H]1CCCC[C@@]1(O)c1cccc(O)c1 | 2.5 | > 10 | 5.1 |  |  |
| COc1cc(N)c(Cl)cc1C(=O)N[C@@H]1CCN(C[C@@H]2CCCC[C@@]2(O)c2cccc(O)c2)C[C@@H]1OC | 1.4 | > 10 | > 10 |  |  |
| COc1cccc([C@@]2(O)CCCC[C@@H]2CN2CC[C@@H](NC(=O)c3cc(Cl)c(N)cc3OC)[C@@H](OC)C2)c1 | 2.8 | > 10 | > 10 |  |  |
| COc1cccc([C@]2(O)CCCC[C@H]2CN(C)CCNC(=O)c2cc(Cl)c(N)cc2OC)c1 | 4.9 | > 10 | > 10 |  |  |
| COc1cc(N)c(Cl)cc1C(=O)N[C@H]1CCN(C[C@@H]2CCCC[C@@]2(O)c2cccc(O)c2)C[C@H]1OC | 0.018 | 9.9 | 0.41 | 0.09 |  |
| COc1cc(N)c(Cl)cc1C(=O)N[C@H]1CCN(C[C@H]2CCCC[C@]2(O)c2cccc(O)c2)C[C@H]1OC | 0.39 | > 10 | > 10 |  |  |
| COc1cc(N)c(Cl)cc1C(=O)NCCN(C)CC1CCCCC1(O)c1cccc(O)c1 (racemic) | 2.8 | > 10 | 0.19 |  |  |
| COc1cc(N)c(Cl)cc1C(=O)NC1CCNCC1OC (racemic) [NORCISAPRIDE] | 1.6 | 0.019 |  | 0.29 | 2.3 |

Source: ChEMBL document CHEMBL1156007, “mu-Opioid/5-HT4 dual pharmacologically active agents-efforts towards an effective opioid analgesic with less GI and respiratory side effects (Part I)” (Bioorg Med Chem Lett, 2009)
